This note sets out measurements from patent publication US20060275170A1, “Method for terminal sterilization of transdermal delivery devices” (priority 2005, published 2006).

Entries after “also recorded” stand apart in the source; their conditions may differ.

Type in all cases: physicochemical
Series [1] is described as follows: Example 4: purity of coated hPTH(1-34) after 15 kGy gamma or e-beam; desiccant, temperature and sucrose content varied (RP-HPLC, SEC-HPLC). As to the method: In this example, formulations of hPTH(1-34) were prepared, comprising 20% w/w HPTH, 20% sucrose or 40% sucrose, 0.2% polysorbate 20 and 0.03% EDTA. The arrays were assembled with a polycarbonate retainer ring and an adhesive. The arrays were sealed in foil pouches purged with nitrogen. Certain samples included a 4 Å molecular seive desiccant. The arrays were exposed to 15 kGy of gamma or e-beam radiation at under dry ice, 2-8° C. or an ambient temperature. As discussed above, the purity and degradation of the PTH formulations was assessed using RP-HPLC and SEC-HPLC.

A short description of series [2]: Example 2: purity and oxidation of coated hPTH after gamma irradiation or ethylene oxide sterilization; packaging and antioxidants varied (RP-HPLC, SEC-HPLC). The following applies: for degradation: glass vial. As to the method: Formulations of hPTH(1-34) were prepared as set forth in Example 1, and coated on microprojection arrays. In addition to the standard 1:1 sucrose:hPTH formulations discussed above, the effect of antioxidants was assessed by adding to selected samples 5% w/w methionine or 3.3% w/w ascorbic acid. The coated arrays were placed in nitrogen purged heat-sealed foil pouches or glass vials. Also, one of the samples was subjected to ethylene oxide sterilization as a comparison. The remaining samples were subjected to dose of gamma radiation of either 7, 14 or 21 kGy under dry ice or an ambient temperature. As discussed above, the purity and degradation of the PTH formulations was assessed using RP-HPLC and SEC-HPLC.

A short description of series [3]: Example 1: purity and degradation products of hPTH(1-34) coated microprojection arrays after gamma or e-beam irradiation (RP-HPLC and SEC-HPLC). As to the method: Validation reverse-phase and size-exclusion high pressure liquid chromatography (RP-HPLC and SEC-HPLC, respectively) were used to quantify PTH oxidation resulting from exposure to the sterilizing radiation. Formulations of hPTH(1-34) were prepared, comprising 20% w/w HPTH, 20% sucrose, 0.2% polysorbate 20 and 0.03% EDTA. The PTH formulations were coated onto microprojection arrays, which were then enclosed in glass vials. The coated arrays were irradiated with 7, 14 or 21 kGy radiation doses, from either gamma radiation or e-beam, under dry ice or an ambient temperature. […] Tables 1 and 2 give the data corresponding to the purity and degradation products for gamma radiation and e-beam, respectively.

Series [4] can be described thus: Example 3: purity and oxidation of coated hPTH(1-34) after gamma irradiation; packaging, purge gas and temperature varied (RP-HPLC, SEC-HPLC). As to the method: Formulations of hPTH(1-34) were prepared as set forth in Example 1, and coated on microprojection arrays. Certain arrays were assembled with a polycarbonate retainer ring and an adhesive. The arrays were sealed in foil pouches purged with nitrogen or ambient air or in glass vials. The arrays were exposed to 14 or 21 kGy of gamma radiation under dry ice or an ambient temperature. As discussed above, the purity and degradation of the PTH formulations was assessed using RP-HPLC and SEC-HPLC.

On to `CC[C@H](C)[C@H](NC(=O)[C@H](CCC(=O)O)NC(=O)[C@H](CO)NC(=O)[C@@H](NC(=O)[C@@H](N)CO)C(C)C)C(=O)N[C@@H](CCC(N)=O)C(=O)N[C@@H](CC(C)C)C(=O)N[C@@H](CCSC)C(=O)N[C@@H](Cc1cnc[nH]1)C(=O)N[C@@H](CC(N)=O)C(=O)N[C@@H](CC(C)C)C(=O)NCC(=O)N[C@@H](CCCCN)C(=O)N[C@@H](Cc1cnc[nH]1)C(=O)N[C@@H](CC(C)C)C(=O)N[C@@H](CC(N)=O)C(=O)N[C@@H](CO)C(=O)N[C@@H](CCSC)C(=O)N[C@@H](CCC(=O)O)C(=O)N[C@@H](CCCN=C(N)N)C(=O)N[C@H](C(=O)N[C@@H](CCC(=O)O)C(=O)N[C@@H](Cc1c[nH]c2ccccc12)C(=O)N[C@@H](CC(C)C)C(=O)N[C@@H](CCCN=C(N)N)C(=O)N[C@@H](CCCCN)C(=O)N[C@@H](CCCCN)C(=O)N[C@@H](CC(C)C)C(=O)N[C@@H](CCC(N)=O)C(=O)N[C@@H](CC(=O)O)C(=O)N[C@H](C(=O)N[C@@H](Cc1cnc[nH]1)C(=O)N[C@@H](CC(N)=O)C(=O)N[C@@H](Cc1ccccc1)C(=O)O)C(C)C)C(C)C` [hPTH(1-34)], for which the “impact of amount of sucrose on stability during irradiation” value in series [1] (1:1 versus 2:1 sucrose:hPTH, gamma or e-beam, FIG. 15) was “did not have a significant impact”. The “degradation, e-beam sterilization versus gamma irradiation” value in series [1] (15 kGy, same temperature, FIG. 13) is given as “less degradation”. Further, the degradation entry in series [1] (sample without a desiccant, 15 kGy, FIG. 13) is given as “most degradation”; in series [2] (ethylene oxide sterilization), “considerable degradation; also recorded: severe”; in series [2] (gamma 21 kGy, ambient temperature, FIG. 8), “severe”. Moreover, the “deamidation and aggregation degradation products” value in series [2] (FIG. 8) is recorded as “not prominent”. In addition, in series [2] (ethylene oxide sterilized sample), the morphology result was “altered substantially”. Also, the oxidation result in series [2] (gamma irradiated samples packaged in nitrogen purged foil pouches) is listed as “minimal oxidation”; in series [4] (gamma 14 kGy, foil pouch sealed with ambient air, dry ice and ambient temperature, FIG. 11), “major oxidation”; in series [4] (gamma 21 kGy, ambient temperature, nitrogen purged glass vial, FIG. 10), “approximately 40%”. Also, in series [2] (gamma radiation, samples other than 21 kGy glass vial ambient (foil pouch, dry ice, 7 or 14 kGy), FIG. 7), the “purity of hPTH” value is “comparable to that of the controls”. The loss of purity entry in series [3] (7 kGy under dry ice, compared with other doses and temperatures) is “least loss of purity”. Moreover, the “degradation (oxidation)” value in series [3] (21 kGY dose, particularly at an ambient temperature) is reported as “less degradation”. Moreover, the aggregation following irradiation entry in series [3] (FIG. 6, gamma and e-beam, 7-21 kGy) was “relatively low”. The “degradation, e-beam sterilization less than gamma radiation” value in series [3] (at the high radiation doses) is recorded as 5-10%. Also, the “purity of PTH relative to a control formulation” value in series [3] (gamma radiation and e-beam exposure, FIG. 5) is listed as “decreased”. Moreover, the deamidated products entry in series [3] (irradiated formulations versus control formulation) is “comparable to the control formulation”. Moreover, the stability following irradiation result in series [4] (arrays with polycarbonate retainer ring and acrylate adhesive, nitrogen purged foil pouch, 14 and 21 kGy, dry ice, FIG. 12) is on record as “adequate stability”. Moreover, the purity result in series [4] (gamma 14 kGy, nitrogen purged foil pouch, dry ice and ambient temperature, FIG. 11) is “comparable to the controls”. In addition, the increase in oxidation result in series [4] (gamma 21 kGy, ambient temperature, nitrogen purged foil pouch, FIG. 10) was “approximately 2%”. For the same molecule, the “increase in overall oxidation” value in series [4] (gamma 21 kGy, nitrogen purged foil pouch, ambient temperature) was “less than 4%”; in series [4] (gamma 21 kGy, nitrogen purged foil pouch, dry ice), “less than 2%”. Also, the “loss in purity relative to the control” value in series [4] (gamma 21 kGy, nitrogen purged foil pouch, FIG. 9) was “did not suffer a significant loss in purity”.
